{"source": "the NIST ThermoML archive (doi:10.1021/acs.jced.6b00819)", "experiment": "wn = mass fraction of the nth substance listed", "conditions": "100 kPa, Liquid, Pycnometric method", "note": "± gives the expanded uncertainty stated by the source."}
{"smiles": "N.N.O=S(=O)(O)O", "note": "[ammonium sulfate] + O", "values": [{"measurement": "mass density", "setting": "313.15 K, w1 = 0.446", "result": "1238 ± 2", "unit": "kg/m3"}, {"measurement": "mass density", "setting": "353.15 K, w1 = 0.481", "result": "1242 ± 2", "unit": "kg/m3"}]}
